Test results from US20170152245A1 (National Taiwan University, priority 2015, published 2017).
Where two headings read alike, the source gives them in different places.

Target: T1, TP receptor (Homo sapiens, UniProt P21731)
T1 construct: expressed in transfected cells; host or cells: HEK-293
T1 sequence (P21731 1-343): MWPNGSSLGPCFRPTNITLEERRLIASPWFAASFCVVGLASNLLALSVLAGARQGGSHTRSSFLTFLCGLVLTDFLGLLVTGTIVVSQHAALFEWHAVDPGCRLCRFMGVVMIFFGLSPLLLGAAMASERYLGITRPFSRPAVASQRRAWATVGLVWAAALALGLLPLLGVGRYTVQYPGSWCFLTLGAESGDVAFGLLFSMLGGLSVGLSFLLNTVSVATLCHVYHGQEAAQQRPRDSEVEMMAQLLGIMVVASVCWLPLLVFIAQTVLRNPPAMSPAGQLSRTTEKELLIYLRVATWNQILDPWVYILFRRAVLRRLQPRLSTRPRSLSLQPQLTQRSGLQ
Test: [3H]SQ-29548 binding to TP receptor of recombinant HEK-293 cells
Method: Freshly prepared samples of this suspension were incubated with [^3H]SQ-29548 (5 nM final concentration), for 60 min at 25° C. The displacement was initiated by addition of nstpbp5185 dissolved in the same buffer. After incubation (30 min, 25° C.), ice-cold Tris-HCl buffer (10 mM, pH 7.4) was added, the sample was rapidly filtered through a glass fiber filter, and the tube rinsed twice with ice-cold buffer. The filters were then placed in plastic scintillation vials containing an emulsion-type scintillation mixture, and the radioactivity was counted.

Q: Which Thromboxane receptor (Table III arrows) does the source give for `Cc1ccc(-c2nc3ccccc3n2Cc2ccccc2)o1` [Example 6, 1-Benzyl-2-(5-methyl-2-furyl)benzimidazole] here?
A: ↓

Q: And the IC50 ([3H]SQ-29548 5 nM, read-out: IC50 in displacing 3H-SQ-29548 from TP receptor expressed on HEK-293 cells)?
A: ~0.1 µM

Q: And the IC50 (read-out: thromboxane A2 receptor blockade IC50)?
A: 0.1 µM
